Results from patent publication US5391540A, “Substituted pyridine compounds” (Rohm and Haas Company, priority 1993, dated 1995).
Values joined by “and” are separate entries in the source; they are usually repeats but may differ in a detail not shown here. Equal entries are not always repeated.

Legend:
Format in all cases: in vivo
Jiwe = experiment: plant injury after spraying emerged plants (Table D); parameters: scale not given here
Excerpt: (§1) Topsoil (silt loam) is sieved through a screen having 1.27 cm openings. In some of the tests the soil was mixed with fertilizer (1225 g/cu. m of 12/5/9 containing isobutylidene diurea), while in other tests the fertilizer was omitted. This mixture is steam sterilized and then placed in aluminum pans 6.985 cm deep having ten holes in the bottom each 0.635 cm in diameter. The soil mixture is compacted to a depth of 1.27 cm. from the top of the pan. A predetermined number of seeds of each of several dicotyledonous and monocotyledonous annual plant species and/or vegetative propagules for the perennial plant species are placed on the soil and pressed into the soil surface. The seeds and/or vegetative propagules are covered with 1.27 cm of a mixture of 50% topsoil and 50% of a mixture of Canadian sphagnum peat moss, vermiculite and a wetting agent. The pans are then placed on a capillary mat on a greenhouse bench and subirrigated as needed. After the plants reach the desired stage (9 to 14 days, 1 to 3 true leaf stage), each pan (except the control pans) is removed to a spraying chamber and sprayed by means of an atomizer, operating at a spray pressure of 170.3 kPa ([…]) at the application rates noted in Table D. In the spray solution is an amount of an emulsifying agent mixture (35% butylamine salt of dodecylbenzenesulfonic acid and 65% tall oil condensed with ethylene oxide in the ratio of 11 mols of ethylene oxide/mol of tall oil) to give a spray solution or suspension. The spray solution or suspension contains a sufficient amount of the candidate chemical in order to give application rates of the active ingredient corresponding to those shown in Table D below while applying a total amount of solution or suspension equivalent to 1870 L/Ha (200 gallons/acre). The pans are returned to the greenhouse and watered as before and the injury to the plants as compared to the control pans is observed at approximately 10-14 days (usually 11 days).
(§2) In the following Table D the legends used to identify the plant species are the same as those used in the preceding Table B.

Cotz = experiment: as above; parameters: scale not given here
Excerpt: as §1, §2

Rape = experiment: as above; parameters: scale not given here
Excerpt: as §1, §2

Prmi = experiment: as above; parameters: scale not given here
Outline: (§3)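 Seeds or perennial propagules were pressed onto steam-sterilized sieved silt loam topsoil and covered with 1.27 cm of a 50:50 topsoil and peat moss/vermiculite/wetting agent mix. Pans were kept on a greenhouse bench over capillary mat and subirrigated as needed.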

Vele = experiment: as above; parameters: scale not given here
Outline: as §3

Hese = experiment: as above; parameters: scale not given here
Outline: as §3

Mogl = experiment: as above; parameters: scale not given here
Outline: as §3

Wibw = experiment: as above; parameters: scale not given here
Outline: as §3

Indian Mustard = experiment: Pre-emergent herbicidal activity (Table A); conditions: Brassica juncea, pre-emergence, Inmu, 11.2 kg/ha, 10-14 days, read-out: herbicidal rating (% inhibition)
Outline: (§4)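 Seeds were sown on compacted topsoil and covered with soil into which test compound (in acetone or water carrier) had been mixed at 11.2 kg/ha. Pans were kept watered on a greenhouse bench, and percent inhibition was scored as a rating about 10-14 days (usually 11) after treatment.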

Wild Buckwheat = experiment: Pre-emergent herbicidal activity (Table A); conditions: Fallopia convolvulus, pre-emergence, Wibw, 11.2 kg/ha, 10-14 days, read-out: herbicidal rating (% inhibition)
Outline: as §4

Seedling Johnsongrass = experiment: Pre-emergent herbicidal activity (Table A); conditions: Sorghum halepense, pre-emergence, Sejg, 11.2 kg/ha, 10-14 days, read-out: herbicidal rating (% inhibition)
Outline: as §4

Annual Bluegrass = experiment: Pre-emergent herbicidal activity (Table A); conditions: pre-emergence, Anbg, 11.2 kg/ha, 10-14 days, read-out: herbicidal rating (% inhibition)
Outline: as §4

Structure (SMILES) | plant injury rating, Jiwe (Jiwe; 0.0701 kg/ha) | plant injury rating, Jiwe (Jiwe; 0.2803 kg/ha) | plant injury rating, Jiwe (Jiwe; 1.1210 kg/ha) | plant injury rating, Cotz (Cotz; 0.0701 kg/ha) | plant injury rating, Rape (Rape; 0.0701 kg/ha) | plant injury rating, Prmi (Prmi; 0.0701 kg/ha) | plant injury rating, Prmi (Prmi; 0.2803 kg/ha) | plant injury rating, Vele (Vele; 0.0701 kg/ha) | plant injury rating, Vele (Vele; 0.2803 kg/ha) | plant injury rating, Vele (Vele; 1.1210 kg/ha) | plant injury rating, Hese (Hese; 0.0701 kg/ha) | plant injury rating, Hese (Hese; 0.2803 kg/ha) | plant injury rating, Hese (Hese; 1.1210 kg/ha) | plant injury rating, Mogl (Mogl; 1.1210 kg/ha) | plant injury rating, Wibw (Wibw; 0.0701 kg/ha) | plant injury rating, Wibw (Wibw; 0.2803 kg/ha) | plant injury rating, Wibw (Wibw; 1.1210 kg/ha) | plant injury rating, Cotz (Cotz; 0.2803 kg/ha) | plant injury rating, Rape (Rape; 1.1210 kg/ha) | plant injury rating, Mogl (Mogl; 0.0701 kg/ha) | further results
COC(=O)c1c(O)nc(C(F)(F)F)c(C(=O)OC)c1CC(C)C [Compound 1, 3,5-pyridinedicarboxylic acid, 2-hydroxy-4-(2-methylpropyl)-6-(trifluoromethyl)-, dimethyl ester] | 0 | 2 and 1 | 2 | 0 | 1 | 0 | 0 | 1 | 2 | 2 | 1 | 2 | 2 | 1 | 0 | 1 | 2 | – | – | – | plant injury rating, Jiwe (Jiwe; 5.3808 kg/ha): 4 and 3; plant injury rating, Prmi (Prmi; 1.1210 kg/ha): 2; plant injury rating, Prmi (Prmi; 5.3808 kg/ha): 3
COC(=O)c1c(OC)nc(C(F)(F)F)c(C2=NCCS2)c1CC(C)C [Compound 50, 3-pyridinecarboxylic acid, 5-(4,5-dihydro-2-thiazolyl)-2-methoxy-4-(2-methylpropyl)-6-(trifluoromethyl)-, methyl ester] | 2 | 2 | 2 and 3 | 1 | – | 0 | 1 | 2 | – | – | 2 | – | – | 2 | 1 | 3 | – | 2 | 3 | 1 | plant injury rating, Jiwe (Jiwe; 5.3808 kg/ha): 3; plant injury rating, Cotz (Cotz; 5.3808 kg/ha): 3; plant injury rating, Rape (Rape; 5.3808 kg/ha): 3; plant injury rating, Vele (Vele; 5.3808 kg/ha): 3; plant injury rating, Hese (Hese; 5.3808 kg/ha): 3; plant injury rating, Mogl (Mogl; 0.2803 kg/ha): 2; plant injury rating, Mogl (Mogl; 5.3808 kg/ha): 3; plant injury rating, Wibw (Wibw; 5.3808 kg/ha): 3
COC(=O)c1c(OC)nc(C(F)(F)F)c(C2SCCS2)c1CC(C)C [Compound 93, 3-pyridinecarboxylic acid, 5-(1,3-dithiolan-2-yl)-2-methoxy-4-(2-methylpropyl)-6-(trifluoromethyl)-, methyl ester] | 2 | 2 | 3 | 0 | 0 | 0 | 0 | 0 | 0 | 2 | 1 | 3 | 3 | 2 | 0 | 0 | 0 | 0 | 3 | 0 | plant injury rating, Jiwe (Jiwe; 5.6050 kg/ha): 3; plant injury rating, Cotz (Cotz; 1.1210 kg/ha): 0; plant injury rating, Cotz (Cotz; 5.6050 kg/ha): 2; plant injury rating, Rape (Rape; 0.2803 kg/ha): 2; plant injury rating, Rape (Rape; 5.6050 kg/ha): 3; inhibition at 11200 g/ha (Indian Mustard): 75 to 100%; inhibition at 11200 g/ha (Wild Buckwheat): 75 to 100%; inhibition at 11200 g/ha (Seedling Johnsongrass): 75 to 100%; inhibition at 11200 g/ha (Annual Bluegrass): 75 to 100%; plant injury rating, Prmi (Prmi; 1.1210 kg/ha): 0; plant injury rating, Prmi (Prmi; 5.6050 kg/ha): 0; plant injury rating, Vele (Vele; 5.6050 kg/ha): 3; plant injury rating, Hese (Hese; 5.6050 kg/ha): 3; plant injury rating, Mogl (Mogl; 0.2803 kg/ha): 2; plant injury rating, Mogl (Mogl; 5.6050 kg/ha): 3; plant injury rating, Wibw (Wibw; 5.6050 kg/ha): 0
COC(=O)c1c(OC)nc(C(F)(F)F)c(C(=O)NCCCBr)c1CC(C)C [Compound 97, 3-pyridinecarboxylic acid, 5-[[(3-bromopropyl)amino)carbonyl]-2-methoxy-4-(2-methylpropyl)-6-(trifluoromethyl)-, methyl ester] | 0 | 0 | 0 | 0 | 0 | 0 | 0 | 0 | 0 | 0 | 0 | 0 | 0 | 0 | 0 | 0 | 0 | 0 | 0 | 0 | plant injury rating, Jiwe (Jiwe; 5.6050 kg/ha): 1; plant injury rating, Cotz (Cotz; 1.1210 kg/ha): 0; plant injury rating, Cotz (Cotz; 5.6050 kg/ha): 0; plant injury rating, Rape (Rape; 0.2803 kg/ha): 0; plant injury rating, Rape (Rape; 5.6050 kg/ha): 0; inhibition at 11200 g/ha (Indian Mustard): 75 to 100%; inhibition at 11200 g/ha (Wild Buckwheat): 50 to 74%; inhibition at 11200 g/ha (Seedling Johnsongrass): 75 to 100%; inhibition at 11200 g/ha (Annual Bluegrass): 75 to 100%; plant injury rating, Prmi (Prmi; 1.1210 kg/ha): 0; plant injury rating, Prmi (Prmi; 5.6050 kg/ha): 0; plant injury rating, Vele (Vele; 5.6050 kg/ha): 0; plant injury rating, Hese (Hese; 5.6050 kg/ha): 0; plant injury rating, Mogl (Mogl; 0.2803 kg/ha): 0; plant injury rating, Mogl (Mogl; 5.6050 kg/ha): 0; plant injury rating, Wibw (Wibw; 5.6050 kg/ha): 0
COC(=O)c1c(OC)nc(C(F)(F)F)c(C2=NCCCS2)c1CC(C)C [Compound 98, 3-pyridinecarboxylic acid, 5-(5,6-dihydro-4H-1,3-thiazin-2-yl)-2-methoxy-4-(2-methylpropyl)-6-(trifluoromethyl)-, methyl ester] | 2 | 2 | 3 | 0 | 0 | 0 | 1 | 1 | 2 | 2 | 1 | 2 | 2 | 1 | 0 | 0 | 1 | 0 | 1 | 0 | plant injury rating, Jiwe (Jiwe; 5.6050 kg/ha): 3; plant injury rating, Cotz (Cotz; 1.1210 kg/ha): 1; plant injury rating, Cotz (Cotz; 5.6050 kg/ha): 2; plant injury rating, Rape (Rape; 0.2803 kg/ha): 0; plant injury rating, Rape (Rape; 5.6050 kg/ha): 3; inhibition at 11200 g/ha (Indian Mustard): 75 to 100%; inhibition at 11200 g/ha (Wild Buckwheat): 75 to 100%; inhibition at 11200 g/ha (Seedling Johnsongrass): 75 to 100%; inhibition at 11200 g/ha (Annual Bluegrass): 75 to 100%; plant injury rating, Prmi (Prmi; 5.6050 kg/ha): 2; plant injury rating, Vele (Vele; 5.6050 kg/ha): 3; plant injury rating, Hese (Hese; 5.6050 kg/ha): 3; plant injury rating, Mogl (Mogl; 0.2803 kg/ha): 0; plant injury rating, Mogl (Mogl; 5.6050 kg/ha): 2; plant injury rating, Wibw (Wibw; 5.6050 kg/ha): 3
